Test results taken from the supplement of paper PMC6045584.
± gives the standard deviation of the averaged measurements.

Columns and labels:
[1] = compound: CC(=O)NCC(=O)N1[C@@H]2CC[C@H]1c1ccc(Nc3ncc(C(F)(F)F)c(NC4CCC4)n3)cc12; assay: surviving fraction relative to DMSO-only wells; higher = less growth inhibition; details: exposure time: 5 days
In short: (§1)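 Log-phase tumour cells were seeded at 250–500 per well in 384-well plates and, from 24 hours after seeding, exposed continuously for five days to inhibitors at 0.5, 1, 5, 10, 50, 100, 500 and 1000 nM. Surviving fraction is CellTiter-Glo luminescence normalised to the median of DMSO-only wells. Luminescence was measured after 10 minutes at room temperature, and only lines screened three times with replicate Pearson r >0.7 and median Z' >0.3 were kept.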

PACLITAXEL = compound: CC(=O)O[C@H]1C(=O)[C@@]2(C)[C@H]([C@H](OC(=O)c3ccccc3)[C@]3(O)C[C@H](OC(=O)[C@H](O)[C@@H](NC(=O)c4ccccc4)c4ccccc4)C(C)=C1C3(C)C)[C@]1(OC(C)=O)CO[C@@H]1C[C@@H]2O [PACLITAXEL]; assay: as above; details: exposure time: 5 days
In short: as §1

| Test System | surviving fraction ([1]; 0.5 nM) | surviving fraction ([1]; 1 nM) | surviving fraction ([1]; 5 nM) | surviving fraction ([1]; 10 nM) | surviving fraction ([1]; 50 nM) | surviving fraction ([1]; 100 nM) | surviving fraction ([1]; 500 nM) | surviving fraction ([1]; 1000 nM) | surviving fraction (PACLITAXEL; 0.5 nM) | surviving fraction (PACLITAXEL; 1 nM) | surviving fraction (PACLITAXEL; 5 nM) | surviving fraction (PACLITAXEL; 10 nM) | surviving fraction (PACLITAXEL; 50 nM) | surviving fraction (PACLITAXEL; 100 nM) | surviving fraction (PACLITAXEL; 500 nM) | surviving fraction (PACLITAXEL; 1000 nM) |
| --- | --- | --- | --- | --- | --- | --- | --- | --- | --- | --- | --- | --- | --- | --- | --- | --- |
| H23 LUNG | 0.971 ± 0.037 | 0.95 ± 0.015 | 0.936 ± 0.037 | 0.931 ± 0.029 | 0.949 ± 0.04 | 0.69 ± 0.051 | 0.471 ± 0.0074 | 0.421 ± 0.014 | 0.951 ± 0.03 | 0.866 ± 0.022 | 0.18 ± 0.0027 | 0.14 ± 0.0095 | 0.113 ± 0.0091 | 0.108 ± 0.0042 | 0.0867 ± 0.0067 | 0.089 ± 0.003 |
| SUM44 BREAST | 1.04 ± 0.039 | 0.997 ± 0.013 | 1.09 ± 0.028 | 1.06 ± 0.13 | 1.09 ± 0.025 | 1.27 ± 0.045 | 1.4 ± 0.056 | 1.26 ± 0.051 | 0.927 ± 0.021 | 0.515 ± 0.041 | 0.403 ± 0.0066 | 0.278 ± 0.0095 | 0.241 ± 0.019 | 0.213 ± 0.0074 | 0.218 ± 0.0062 | 0.202 ± 0.011 |
| VCAP PROSTATE | 1.06 ± 0.051 | 1.05 ± 0.086 | 1.08 ± 0.11 | 0.935 ± 0.053 | 0.681 ± 0.075 | 0.603 ± 0.016 | 0.433 ± 0.021 | 0.327 ± 0.038 | 0.846 ± 0.11 | 0.666 ± 0.052 | 0.179 ± 0.038 | 0.0997 ± 0.0076 | 0.077 ± 0.015 | 0.0693 ± 0.0068 | 0.0677 ± 0.022 | 0.0697 ± 0.0086 |
| CME SYNOVIAL | 1.13 ± 0.079 | 1.02 ± 0.17 | 0.992 ± 0.16 | 1.08 ± 0.066 | 0.915 ± 0.032 | 0.395 ± 0.036 | 0.255 ± 0.02 | 0.33 ± 0.015 | 1.07 ± 0.11 | 0.933 ± 0.11 | 0.524 ± 0.12 | 0.279 ± 0.073 | 0.258 ± 0.02 | 0.219 ± 0.028 | 0.2 ± 0.041 | 0.262 ± 0.02 |
| HCT15 LARGE INTESTINE | 0.969 ± 0.062 | 0.9727 ± 0.009 | 0.971 ± 0.037 | 0.98 ± 0.036 | 0.394 ± 0.11 | 0.211 ± 0.034 | 0.17 ± 0.041 | 0.0853 ± 0.0072 | 1.01 ± 0.012 | 1.07 ± 0.024 | 0.95 ± 0.077 | 0.861 ± 0.074 | 0.255 ± 0.064 | 0.0833 ± 0.0076 | 0.04 ± 0.0036 | 0.0453 ± 0.0032 |
| S68 BREAST | 0.875 ± 0.16 | 0.86 ± 0.083 | 0.973 ± 0.18 | 0.946 ± 0.11 | 0.487 ± 0.057 | 0.472 ± 0.024 | 0.529 ± 0.081 | 0.466 ± 0.13 | 0.815 ± 0.052 | 0.575 ± 0.13 | 0.197 ± 0.045 | 0.134 ± 0.026 | 0.14 ± 0.0047 | 0.144 ± 0.025 | 0.114 ± 0.0076 | 0.122 ± 0.0061 |
| SG43 HEADNECK | 1.01 ± 0.065 | 1.18 ± 0.26 | 0.8 ± 0.25 | 0.923 ± 0.17 | 0.703 ± 0.22 | 0.682 ± 0.093 | 0.579 ± 0.039 | 0.569 ± 0.069 | 0.793 ± 0.2 | 0.849 ± 0.078 | 0.588 ± 0.022 | 0.619 ± 0.067 | 0.471 ± 0.0079 | 0.467 ± 0.091 | 0.477 ± 0.07 | 0.433 ± 0.038 |
| BT20 BREAST | 1.03 ± 0.028 | 0.968 ± 0.062 | 1.02 ± 0.09 | 0.87 ± 0.051 | 0.365 ± 0.054 | 0.199 ± 0.038 | 0.293 ± 0.041 | 0.291 ± 0.055 | 0.956 ± 0.11 | 0.718 ± 0.026 | 0.0893 ± 0.0055 | 0.0667 ± 0.0057 | 0.0593 ± 0.0063 | 0.058 ± 0.01 | 0.0513 ± 0.0049 | 0.0587 ± 0.011 |
| T47D BREAST | 0.9824 ± 0.0044 | 1.02 ± 0.014 | 1.03 ± 0.032 | 1.05 ± 0.046 | 1.16 ± 0.025 | 1.09 ± 0.013 | 1.12 ± 0.018 | 1.07 ± 0.013 | 0.718 ± 0.018 | 0.579 ± 0.01 | 0.307 ± 0.0054 | 0.265 ± 0.027 | 0.226 ± 0.011 | 0.222 ± 0.022 | 0.214 ± 0.0067 | 0.226 ± 0.023 |
| VP229 BREAST | 1.08 ± 0.051 | 1.1 ± 0.12 | 1.02 ± 0.15 | 0.999 ± 0.04 | 0.917 ± 0.046 | 0.548 ± 0.016 | 0.624 ± 0.031 | 0.556 ± 0.057 | 1.05 ± 0.091 | 0.93 ± 0.067 | 0.516 ± 0.064 | 0.364 ± 0.041 | 0.338 ± 0.013 | 0.27 ± 0.019 | 0.279 ± 0.052 | 0.293 ± 0.024 |
| SG31 HEADNECK | 0.909 ± 0.13 | 1.05 ± 0.18 | 1.03 ± 0.26 | 0.808 ± 0.041 | 0.913 ± 0.052 | 0.705 ± 0.069 | 0.749 ± 0.076 | 0.717 ± 0.1 | 0.976 ± 0.12 | 0.887 ± 0.06 | 0.455 ± 0.029 | 0.381 ± 0.036 | 0.271 ± 0.037 | 0.252 ± 0.033 | 0.267 ± 0.045 | 0.273 ± 0.028 |
| HS57T BREAST | 0.907 ± 0.056 | 0.894 ± 0.049 | 0.955 ± 0.0027 | 0.94 ± 0.044 | 0.633 ± 0.069 | 0.535 ± 0.025 | 0.443 ± 0.013 | 0.414 ± 0.019 | 0.773 ± 0.045 | 0.478 ± 0.058 | 0.0727 ± 0.0025 | 0.0563 ± 0.0021 | 0.0457 ± 0.0042 | 0.0463 ± 0.0065 | 0.0353 ± 0.0021 | 0.0403 ± 0.007 |
| G292 BONE | 0.997 ± 0.043 | 0.968 ± 0.052 | 0.999 ± 0.025 | 0.949 ± 0.015 | 0.59 ± 0.028 | 0.485 ± 0.017 | 0.181 ± 0.0022 | 0.087 ± 0.001 | 0.727 ± 0.028 | 0.472 ± 0.021 | 0.196 ± 0.0038 | 0.161 ± 0.0064 | 0.148 ± 0.0067 | 0.147 ± 0.0013 | 0.1228 ± 0.00076 | 0.128 ± 0.0067 |
| CAL51 BREAST | 1.01 ± 0.041 | 0.9652 ± 0.005 | 0.988 ± 0.032 | 0.946 ± 0.013 | 0.675 ± 0.019 | 0.222 ± 0.0058 | 0.144 ± 0.0039 | 0.146 ± 0.009 | 0.824 ± 0.04 | 0.642 ± 0.076 | 0.0935 ± 0.013 | 0.0585 ± 0.0033 | 0.0427 ± 0.0018 | 0.0332 ± 0.0037 | 0.0295 ± 0.0005 | 0.0332 ± 0.0027 |
| 93VU HEADNECK | 0.823 ± 0.059 | 0.803 ± 0.035 | 0.951 ± 0.029 | 1 ± 0.061 | 0.895 ± 0.055 | 0.682 ± 0.0098 | 0.331 ± 0.043 | 0.114 ± 0.021 | 0.972 ± 0.067 | 0.752 ± 0.059 | 0.326 ± 0.015 | 0.266 ± 0.014 | 0.157 ± 0.011 | 0.134 ± 0.0064 | 0.135 ± 0.018 | 0.132 ± 0.0017 |
| CAL120 BREAST | 0.923 ± 0.051 | 0.9253 ± 0.0041 | 0.945 ± 0.029 | 0.9333 ± 0.0076 | 0.8605 ± 0.0059 | 0.643 ± 0.025 | 0.489 ± 0.053 | 0.387 ± 0.047 | 0.744 ± 0.044 | 0.602 ± 0.022 | 0.158 ± 0.014 | 0.0937 ± 0.005 | 0.105 ± 0.003 | 0.0962 ± 0.0023 | 0.0798 ± 0.0061 | 0.0923 ± 0.007 |
| LM7 BONE | 0.965 ± 0.032 | 0.951 ± 0.058 | 1.04 ± 0.051 | 1.02 ± 0.011 | 0.921 ± 0.067 | 0.642 ± 0.037 | 0.25 ± 0.024 | 0.13 ± 0.007 | 0.951 ± 0.061 | 0.825 ± 0.034 | 0.123 ± 0.019 | 0.092 ± 0.003 | 0.0847 ± 0.0068 | 0.075 ± 0.0044 | 0.0723 ± 0.0015 | 0.0703 ± 0.004 |
| SAOS2 BONE | 1.03 ± 0.017 | 1.045 ± 0.0052 | 1.08 ± 0.069 | 1.06 ± 0.092 | 1.03 ± 0.065 | 0.704 ± 0.049 | 0.157 ± 0.0075 | 0.0957 ± 0.0029 | 1.08 ± 0.043 | 1.06 ± 0.018 | 0.46 ± 0.043 | 0.165 ± 0.013 | 0.0527 ± 0.004 | 0.0527 ± 0.00058 | 0.0447 ± 0.0063 | 0.0557 ± 0.0063 |
| MDAMB231 BREAST | 0.975 ± 0.018 | 0.98 ± 0.016 | 0.974 ± 0.011 | 0.967 ± 0.015 | 0.706 ± 0.063 | 0.571 ± 0.027 | 0.416 ± 0.022 | 0.337 ± 0.018 | 0.706 ± 0.028 | 0.328 ± 0.039 | 0.163 ± 0.0032 | 0.125 ± 0.0027 | 0.121 ± 0.0031 | 0.121 ± 0.0088 | 0.0907 ± 0.0055 | 0.0993 ± 0.0078 |
| ZR751 BREAST | 0.874 ± 0.18 | 0.927 ± 0.062 | 0.923 ± 0.12 | 0.925 ± 0.04 | 0.774 ± 0.1 | 1.04 ± 0.094 | 0.815 ± 0.062 | 0.897 ± 0.038 | 0.774 ± 0.1 | 0.628 ± 0.042 | 0.52 ± 0.087 | 0.461 ± 0.024 | 0.389 ± 0.042 | 0.437 ± 0.057 | 0.397 ± 0.021 | 0.449 ± 0.023 |
